Data taken from ChEMBL document CHEMBL1130767, “Discovery of a new cyclooxygenase-2 lead compound through 3-D database searching and combinatorial chemistry” (Bioorg Med Chem Lett, 1998).
Each block holds one compound with its values, some of them ahead of it.

Assays:
[1] = target: T1, Prostaglandin G/H synthase 2 (Homo sapiens) (UniProt P35354); experiment: Compound was evaluated for percent inhibition of Prostaglandin G/H synthase 2 at the concentration of 0.3 uM
T1 sequence (whole entry): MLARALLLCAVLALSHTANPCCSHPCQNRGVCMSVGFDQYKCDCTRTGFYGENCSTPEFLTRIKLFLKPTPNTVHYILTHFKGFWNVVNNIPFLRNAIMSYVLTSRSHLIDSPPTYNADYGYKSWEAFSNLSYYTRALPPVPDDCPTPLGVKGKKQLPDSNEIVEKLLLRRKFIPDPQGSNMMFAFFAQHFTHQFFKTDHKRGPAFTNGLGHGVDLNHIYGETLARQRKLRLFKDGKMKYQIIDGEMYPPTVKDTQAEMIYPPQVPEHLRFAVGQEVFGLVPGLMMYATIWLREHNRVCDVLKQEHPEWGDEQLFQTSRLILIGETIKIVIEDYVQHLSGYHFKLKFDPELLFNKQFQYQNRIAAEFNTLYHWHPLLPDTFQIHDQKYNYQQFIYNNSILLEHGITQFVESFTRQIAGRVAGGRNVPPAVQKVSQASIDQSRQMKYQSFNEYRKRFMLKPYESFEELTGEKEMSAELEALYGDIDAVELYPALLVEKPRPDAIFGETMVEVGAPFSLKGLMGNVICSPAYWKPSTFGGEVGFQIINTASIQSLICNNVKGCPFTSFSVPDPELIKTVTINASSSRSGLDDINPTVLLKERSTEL

[2] = target: T2, Prostaglandin G/H synthase 1 (Homo sapiens, UniProt P23219); experiment: Inhibitory activity was evaluated against human Prostaglandin G/H synthase 1 was determined
T2 sequence (P23219 whole entry): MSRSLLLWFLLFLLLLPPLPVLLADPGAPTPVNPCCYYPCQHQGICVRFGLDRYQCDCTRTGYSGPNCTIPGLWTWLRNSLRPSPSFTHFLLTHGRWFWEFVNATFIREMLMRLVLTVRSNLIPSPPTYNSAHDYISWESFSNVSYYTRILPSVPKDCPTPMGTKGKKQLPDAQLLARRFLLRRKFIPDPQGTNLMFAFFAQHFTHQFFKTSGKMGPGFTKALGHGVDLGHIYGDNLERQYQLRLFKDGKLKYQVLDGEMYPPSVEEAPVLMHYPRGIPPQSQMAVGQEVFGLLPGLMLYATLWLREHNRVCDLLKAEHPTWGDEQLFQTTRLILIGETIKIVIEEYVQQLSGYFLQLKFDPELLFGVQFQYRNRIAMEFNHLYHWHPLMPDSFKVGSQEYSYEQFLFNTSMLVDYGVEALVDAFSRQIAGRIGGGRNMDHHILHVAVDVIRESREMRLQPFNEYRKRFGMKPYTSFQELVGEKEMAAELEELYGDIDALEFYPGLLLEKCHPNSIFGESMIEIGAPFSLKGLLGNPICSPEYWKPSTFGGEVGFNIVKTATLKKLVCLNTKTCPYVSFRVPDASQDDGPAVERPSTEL

[3] = target: T3, Prostaglandin G/H synthase 2 (Homo sapiens, UniProt P35354); experiment: Inhibitory activity was evaluated against human Prostaglandin G/H synthase 2 was determined
T3 sequence (P35354 whole entry): T1 sequence (whole entry)

[4] = target: T2, Prostaglandin G/H synthase 1; experiment: Compound was evaluated for the inhibition of Prostaglandin G/H synthase 1 at the concentration of 3 uM
[5] = target: T2, Prostaglandin G/H synthase 1; experiment: Compound was evaluated for percent inhibition of Prostaglandin G/H synthase 1 at the concentration of 0.3 uM
[6] = target: T1, Prostaglandin G/H synthase 2 (Homo sapiens); experiment: Compound was evaluated for percent inhibition of Prostaglandin G/H synthase 2 at the concentration of 10 uM
[7] = target: T2, Prostaglandin G/H synthase 1; experiment: Compound was evaluated for percent inhibition of Prostaglandin G/H synthase 1 at the concentration of 10 uM

inhibition [1]: 15%
SMILES: O=C(CCC1CCCCC1)NCCCN1c2ccccc2Sc2ccccc21

inhibition [1]: 15%
SMILES: O=C(COc1ccc(Br)cc1)NCCCN1c2ccccc2Sc2ccccc21

inhibition [6]: 14%
inhibition [7]: 25%
SMILES: O=C(O)CCN1c2ccccc2Sc2ccccc21

inhibition [1]: 18%
SMILES: CCC(=O)NCCCN1c2ccccc2Sc2ccccc21

inhibition [6]: 14%
inhibition [7]: 12%
SMILES: OCCN1c2ccccc2Sc2ccccc21

The next lines start with the compound.

SMILES: CC(O)CN1c2ccccc2Sc2ccccc21 (centres undefined)
IC50 [2]: 1 µM
IC50 [3]: 5 µM

SMILES: CC(C)(Oc1ccc(Cl)cc1)C(=O)NCCCN1c2ccccc2Sc2ccccc21
inhibition [1]: 44%
inhibition [4]: 17%
inhibition [5]: 13%
IC50 [3]: 1.3 µM

SMILES: CC(C)(COc1ccc(Br)cc1)C(=O)NCCCN1c2ccccc2Sc2ccccc21
inhibition [1]: 34%
inhibition [4]: 19%
inhibition [5]: 12%
IC50 [3]: 21 µM

SMILES: CC(S)CN1c2ccccc2Sc2ccccc21 (centres undefined)
IC50 [2]: 0.5 µM
IC50 [3]: 4 µM
